System: JAS
Assay: Microarray of JAS cDNA clones after spraying sugarcane plants with defense-inducing agents
Format: in vivo
Conditions: treated v. untreated plant
Description: The 251 cDNA clones used for microarray analysis in Example 1 were further used to assess the effects of defense-inducing agents on the expression of the stem-specific genes.
Total RNA was extracted from wild type sugarcane plants (3 months-old) that were sprayed with the defense-inducing agents jasmonic acid (JA) (25·mu·M in 0.05.percent.Tween 20), methyl-jasmonate (MeJA) (200·mu·M in 0.1.percent.ethanol and 0.05.percent.Tween 20) or salicylic acid (SA) (5 mM in 0.05.percent.Tween 20) for two time periods, 24 and 48 hours. The microarray including 251 cDNAs was probed with fluorescently labeled cDNAs synthesized from 1·mu·g of total amplified RNA. One cDNA probe (e.g. RNA from plant treated with a defense-inducing agent) is labeled with one dye (Cy5), and the second (e.g. RNA from untreated control plant) with another dye (Cy3)
Microarray data was analyzed using GeneSpring analysis software. Data were normalized using an endogenous constitutive gene. The normalized ratio of Cy5 v.

CC/C=C\CC1C(=O)CCC1CC(=O)OC (stereo not shown) [MeJA, methyl-jasmonate]
Cy5/Cy3 Ratios (Upregulation) for JAS (clone 2I1, MeJA 200 μM spray, 24 hours): 0.27
Cy5/Cy3 Ratios (Upregulation) for JAS (clone 2I1, MeJA 200 μM spray, 48 hours): 0.22
Cy5/Cy3 Ratios (Upregulation) for JAS (clone 4Q3, MeJA 200 μM spray, 24 hours): 0.15
Cy5/Cy3 Ratios (Upregulation) for JAS (clone 4Q3, MeJA 200 μM spray, 48 hours): 0.18
Cy5/Cy3 Ratios (Upregulation) for JAS (clone 5P22, MeJA 200 μM spray, 24 hours): 0.16
Cy5/Cy3 Ratios (Upregulation) for JAS (clone 5P22, MeJA 200 μM spray, 48 hours): 0.17
Cy5/Cy3 Ratios (Upregulation) for JAS (clone 6H10, MeJA 200 μM spray, 24 hours): 0.15
Cy5/Cy3 Ratios (Upregulation) for JAS (clone 6H10, MeJA 200 μM spray, 48 hours): 0.19
Cy5/Cy3 Ratios (Upregulation) for JAS (clone 10P7, MeJA 200 μM spray, 24 hours): 0.13
Cy5/Cy3 Ratios (Upregulation) for JAS (clone 10P7, MeJA 200 μM spray, 48 hours): 0.15
Cy5/Cy3 Ratios (Upregulation) for JAS (clone 12F18, MeJA 200 μM spray, 24 hours): 0.20
Cy5/Cy3 Ratios (Upregulation) for JAS (clone 12F18, MeJA 200 μM spray, 48 hours): 0.21
Cy5/Cy3 Ratios (Upregulation) for JAS (clone 13F16, MeJA 200 μM spray, 24 hours): 0.25
Cy5/Cy3 Ratios (Upregulation) for JAS (clone 13F16, MeJA 200 μM spray, 48 hours): 0.34
Cy5/Cy3 Ratios (Upregulation) for JAS (clone 17C11, MeJA 200 μM spray, 24 hours): 0.17
Cy5/Cy3 Ratios (Upregulation) for JAS (clone 17C11, MeJA 200 μM spray, 48 hours): 0.17
Cy5/Cy3 Ratios (Upregulation) for JAS (clone 18H16, MeJA 200 μM spray, 24 hours): 3.00
Cy5/Cy3 Ratios (Upregulation) for JAS (clone 18H16, MeJA 200 μM spray, 48 hours): 0.79
Cy5/Cy3 Ratios (Upregulation) for JAS (clone 20F18, MeJA 200 μM spray, 24 hours): 0.16
Cy5/Cy3 Ratios (Upregulation) for JAS (clone 20F18, MeJA 200 μM spray, 48 hours): 0.18
Cy5/Cy3 Ratios (Upregulation) for JAS (clone 20G16, MeJA 200 μM spray, 24 hours): 0.50
Cy5/Cy3 Ratios (Upregulation) for JAS (clone 20G16, MeJA 200 μM spray, 48 hours): 0.49
Cy5/Cy3 Ratios (Upregulation) for JAS (clone 24G4, MeJA 200 μM spray, 24 hours): 0.37
Cy5/Cy3 Ratios (Upregulation) for JAS (clone 24G4, MeJA 200 μM spray, 48 hours): 0.41
Cy5/Cy3 Ratios (Upregulation) for JAS (clone 25K14, MeJA 200 μM spray, 24 hours): 3.07
Cy5/Cy3 Ratios (Upregulation) for JAS (clone 25K14, MeJA 200 μM spray, 48 hours): 1.02

O=C(O)c1ccccc1O [SA, salicylic acid]
Cy5/Cy3 Ratios (Upregulation) for JAS (clone 2I1, SA 5 mM spray, 48 hours): 16.92
Cy5/Cy3 Ratios (Upregulation) for JAS (clone 4Q3, SA 5 mM spray, 48 hours): 15.26
Cy5/Cy3 Ratios (Upregulation) for JAS (clone 5P22, SA 5 mM spray, 48 hours): 18.08
Cy5/Cy3 Ratios (Upregulation) for JAS (clone 6H10, SA 5 mM spray, 48 hours): 19.22
Cy5/Cy3 Ratios (Upregulation) for JAS (clone 10P7, SA 5 mM spray, 48 hours): 20.96
Cy5/Cy3 Ratios (Upregulation) for JAS (clone 12F18, SA 5 mM spray, 48 hours): 17.54
Cy5/Cy3 Ratios (Upregulation) for JAS (clone 17C11, SA 5 mM spray, 48 hours): 18.83
Cy5/Cy3 Ratios (Upregulation) for JAS (clone 18H16, SA 5 mM spray, 48 hours): 0.70
Cy5/Cy3 Ratios (Upregulation) for JAS (clone 20F18, SA 5 mM spray, 48 hours): 19.54
Cy5/Cy3 Ratios (Upregulation) for JAS (clone 20G16, SA 5 mM spray, 48 hours): 13.81
Cy5/Cy3 Ratios (Upregulation) for JAS (clone 24G4, SA 5 mM spray, 48 hours): 7.73
Cy5/Cy3 Ratios (Upregulation) for JAS (clone 25K14, SA 5 mM spray, 48 hours): 0.70

CC/C=C\C[C@H]1C(=O)CC[C@@H]1CC(=O)O [JA, jasmonic acid]
Cy5/Cy3 Ratios (Upregulation) for JAS (clone 2I1, JA 25 μM spray, 24 hours): 0.59
Cy5/Cy3 Ratios (Upregulation) for JAS (clone 2I1, JA 25 μM spray, 48 hours): 2.10
Cy5/Cy3 Ratios (Upregulation) for JAS (clone 4Q3, JA 25 μM spray, 24 hours): 0.41
Cy5/Cy3 Ratios (Upregulation) for JAS (clone 4Q3, JA 25 μM spray, 48 hours): 2.12
Cy5/Cy3 Ratios (Upregulation) for JAS (clone 5P22, JA 25 μM spray, 24 hours): 0.41
Cy5/Cy3 Ratios (Upregulation) for JAS (clone 5P22, JA 25 μM spray, 48 hours): 2.10
Cy5/Cy3 Ratios (Upregulation) for JAS (clone 6H10, JA 25 μM spray, 24 hours): 0.42
Cy5/Cy3 Ratios (Upregulation) for JAS (clone 6H10, JA 25 μM spray, 48 hours): 2.19
Cy5/Cy3 Ratios (Upregulation) for JAS (clone 10P7, JA 25 μM spray, 24 hours): 0.59
Cy5/Cy3 Ratios (Upregulation) for JAS (clone 10P7, JA 25 μM spray, 48 hours): 2.10
Cy5/Cy3 Ratios (Upregulation) for JAS (clone 12F18, JA 25 μM spray, 24 hours): 0.51
Cy5/Cy3 Ratios (Upregulation) for JAS (clone 12F18, JA 25 μM spray, 48 hours): 1.64
Cy5/Cy3 Ratios (Upregulation) for JAS (clone 13F16, JA 25 μM spray, 24 hours): 0.51
Cy5/Cy3 Ratios (Upregulation) for JAS (clone 13F16, JA 25 μM spray, 48 hours): 2.21
Cy5/Cy3 Ratios (Upregulation) for JAS (clone 17C11, JA 25 μM spray, 24 hours): 0.35
Cy5/Cy3 Ratios (Upregulation) for JAS (clone 17C11, JA 25 μM spray, 48 hours): 2.12
Cy5/Cy3 Ratios (Upregulation) for JAS (clone 18H16, JA 25 μM spray, 24 hours): 1.90
Cy5/Cy3 Ratios (Upregulation) for JAS (clone 18H16, JA 25 μM spray, 48 hours): 1.40
Cy5/Cy3 Ratios (Upregulation) for JAS (clone 20F18, JA 25 μM spray, 24 hours): 0.34
Cy5/Cy3 Ratios (Upregulation) for JAS (clone 20F18, JA 25 μM spray, 48 hours): 2.00
Cy5/Cy3 Ratios (Upregulation) for JAS (clone 20G16, JA 25 μM spray, 24 hours): 0.85
Cy5/Cy3 Ratios (Upregulation) for JAS (clone 20G16, JA 25 μM spray, 48 hours): 1.30
Cy5/Cy3 Ratios (Upregulation) for JAS (clone 24G4, JA 25 μM spray, 24 hours): 0.41
Cy5/Cy3 Ratios (Upregulation) for JAS (clone 24G4, JA 25 μM spray, 48 hours): 1.14
Cy5/Cy3 Ratios (Upregulation) for JAS (clone 25K14, JA 25 μM spray, 24 hours): 1.73
Cy5/Cy3 Ratios (Upregulation) for JAS (clone 25K14, JA 25 μM spray, 48 hours): 1.65

— US7754946B2, “Stem-regulated, plant defense promoter and uses thereof in tissue-specific expression in monocots” (The Texas A&M University System, priority 2003, dated 2010)
